From patent publication US20260248820A1, “USES OF HYDROGENATED CANNABIDIOL (H4CBD) AND ADVANCED METABOLIC SYNDROME” (The Regents of the University of California, priority 2022, published 2026)

How the values were obtained:
[1] = system: Otsuka Long-Evans Tokushima Fatty (OLETF) rat; assay: End of study fasting blood/plasma measurements (glucose, hormones, lipids, RAAS peptides); format: in vivo; set-up: Plasma AngII higher than OLETF control / Plasma Ang 1-7 higher than OLETF control / Plasma aldosterone higher than OLETF control / Reduction of fasting insulin to glucagon ratio compared to OLETF / Reduction of circulating adiponectin compared to OLETF / Reduction of leptin compared to OLETF: concentration or dose not given beside the values
From the text: Tissue Collection—After the 4-week study and 3 days following the OGTT, animals were fasted overnight and tissues were collected the following morning.
Statistics—All values are represented as mean #standard error mean (SEM) unless otherwise indicated. Means were compared by one-way ANOVA followed by Tukey's honest significant difference or unpaired, one-tailed t-test to assess significant differences among groups. Means and regressions were considered significant at p<0.05. Outliers were detected by ROUT (Q=1.0%) and removed; however, it should be noted that this was necessary for only 12 occurrences. All statistical procedures, including Pearson r correlations, were performed using GraphPad Prism 9.3.1 (GraphPad Software, Inc., San Diego, CA, USA).
Tissue Collection—After the 4-week study period, animals were fasted overnight, and tissues were collected at sacrifice the following morning. BM was recorded before animals were decapitated and trunk blood was collected.
Plasma Analysis—Plasma concentrations of adiponectin (Millipore Sigma; EZRADP-62K), aldosterone (R&D Systems; KGE016), angiotensin 1-7 (Phoenix Pharmaceuticals; EKE-002-01), angiotensin II (Phoenix Pharmaceuticals; EK-002-12CE), corticosterone (R&D Systems; KGE009), ghrelin (Sigma Aldrich; RAB0207), glucagon (Crystal Chemicals; 81519), leptin (Millipore Sigma; EZRL-83K), non-esterified fatty acid (NEFA) (Wako Chemicals) and triglycerides (Cayman Chemical; 10010303) were measured in fasted, end of study plasma samples. All samples were analyzed in duplicate and run in a single assay with intra-assay and percent CV of <10% for all assays.

[2] = system: Otsuka Long-Evans Tokushima Fatty (OLETF) rat; assay: Oral Glucose Tolerance Test (OGTT); format: in vivo
Method: Male lean Long Evan's Tokushima Otsuka (LETO) rats and obese Otsuka Long Evans Tokushima Fatty (OLETF) rats (Japan SLC Inc., Hamamatsu, Japan), both 14 weeks of age were assigned to the following groups (n=8/group): (1) vehicle-dosed LETO (LETO), (2) vehicle-dosed OLETF (OLETF), and (3) H4CBD-treated (200 mg/kg/day×4 weeks) OLETF (H4CBD). Rats were maintained in a specific pathogen-free, climate-controlled facility on a 12-hour light: dark cycle (07:00-19:00 and 19:00-07:00, respectively). All animals had free access to water and were fed rat chow (Teklad Global; fat 9.0%; carbohydrate 44.9%; protein 19.0%) ad libitum. Treatment intervention was initiated at 41 weeks of age. Phenotypic data (i.e. body mass, food intake) was collected daily for all animals.
Purified H4CBD (>99%) was suspended in food grade sesame oil and administered by oral gavage at a dose of 200 mg/kg.
Oral Glucose Tolerance Test (OGTT)—At approximately 45 weeks of age and following an overnight fast, oGTTs were performed as previously described. The positive incremental areas under the curve for glucose (AUCglucose) and insulin (AUCinsulin) were calculated by the trapezoidal method. Insulin resistance index (IRI) was calculated by AUCglucosex AUCinsulin/100, as previously described.

[3] = system: endocannabinoid receptors; settings: cited from earlier work
Collagen Type IV = assay: Liver Type IV collagen deposition (liver damage); format: in vivo, rat; settings: collagen 71% higher in OLETF than LETO
From the text: Type IV collagen deposition is an indicator of liver fibrosis, which is useful in the diagnosis of NAFLD in elderly individuals and models of NAFLD like OLETF.

[4] = H4CBD-treated OLETF rats, end of study fasting, mean ± SEM
[5] = H4CBD-treated OLETF rats, end of study, mean ± SEM

CCCCCc1cc(O)c(C2CC(C)CCC2C(C)C)c(O)c1 (stereo not shown) [H4CBD, 2-(2-isopropyl-5-methylcyclohexyl)-5-pentylbenzene-1,3-diol]
Fasting blood glucose higher than LETO ([1]; 45 weeks of age, p<0.0001): 2.2 fold | Fasting blood glucose higher than OLETF ([1]; 45 weeks of age, p<0.01): 56% | Glucose:Insulin (mmol/μIU × 10^4) [1, 4]: 10.9 ± 1.1^ mmol/μIU × 10^4 | Insulin:Glucagon (μIU/pg) [1, 4]: 0.6 ± 0.0^ μIU/pg | Fasting glucagon [1, 5]: 19.4 ± 9.4 pg/mL | Fasting insulin (μIU/mL) [1, 5]: 13.9 ± 0.4^# μIU/mL | Fasting blood glucose (mmol/L) ([1]; H4CBD-treated OLETF rats, end of study, mean ± SEM, n = 8): 15.8 ± 1.9^†£ mmol/L | Fasted plasma NEFA ([1]; LETO, OLETF, H4CBD): not different among groups | Increase of fasting plasma insulin over OLETF ([1]; end of study): 10% | Plasma glucagon, OLETF versus H4CBD ([1]; end of study fasting): not different | Plasma Ang 1-7 higher than OLETF control ([1]; end of study plasma): 26% | Plasma AngII higher than OLETF control ([1]; end of study plasma): 24% | Plasma aldosterone higher than OLETF control ([1]; end of study plasma, p=0.052): 150% | Plasma corticosterone ([1]; fasting plasma, LETO, OLETF, H4CBD): comparable amongst the groups | Plasma ghrelin greater than the other groups ([1]; fasting plasma, p<0.01 vs OLETF, p<0.05 vs LETO): 75% | Reduction of circulating adiponectin compared to OLETF ([1]; fasting plasma, p<0.05): 40% | Reduction of leptin compared to OLETF ([1]; fasting plasma, p<0.05): 47% | Leptin:adiponectin ratio ([1]; fasting plasma, ratio 30% lower in OLETF than LETO): did not modulate the ratio further | Fasted plasma TG ([1]; p<0.0001 OLETF vs. H4CBD, TG 147% higher in OLETF than LETO): reduced fasted plasma TG to LETO control levels | Increase of fasting glucose to insulin ratio compared to OLETF ([1]; p<0.05): 47% | Reduction of fasting insulin to glucagon ratio compared to OLETF ([1]; p<0.05): 64% | Glucose response curve to OGTT ([2]; % baseline, p<0.01 OLETF vs. H4CBD): lowest | Reduction of insulin resistance index (IRI) ([2]; IRI = AUCglucose x AUCinsulin/100, p<0.05 OLETF vs. H4CBD): 23% | Time of blood glucose peak after glucose bolus ([2]; OGTT at about 45 weeks, overnight fast, treated and non-treated OLETF): 60 min | Reduction of overall AUCglucose from OLETF ([2]; OGTT, p<0.001): 29% | Plasma insulin response to OGTT ([2]; response abolished in OLETF): not rescued | Affinity for the endocannabinoid receptors responsible for cannabis intoxication [3]: little affinity | Liver collagen (Type IV) deposition (Collagen Type IV): no effect on collagen levels
